Measurements from patent publication US20240174669A1, “CRYSTALLINE FORMS OF A PARP1 INHIBITOR” (XinThera, Inc., priority 2022, published 2024).

Test: Solid-state stability
Format: physicochemical
Description: Solid-state stability of free base Form II (Lot#1) was conducted at 60° C. (capped) and 40° C./75% RH (open) for 7 days. The stability sample was dissolved in diluent to prepare solution at ˜0.5 mg/mL for HPLC purity analysis. Solid samples were analyzed by XRPD to check the crystalline form. […] (capped) and 40° C./75% RH (open) after 7 days.

CNC(=O)c1ccc(N2CCN(Cc3cnc4cc(C5CC5)c(=O)[nH]c4c3)CC2)cn1 [Freebase Form II, 5-(4-((7-cyclopropyl-6-oxo-5,6-dihydro-1,5-naphthyridin-3-yl)methyl)piperazin-1-yl)-N-methylpicolinamide]
Purity (area %) @7 D 40° C./75% RH (40° C./75% RH (open), 7 days): 99.26 area %
XRPD @7 D 40° C./75% RH (40° C./75% RH (open), 7 days): Unchanged
solid-state stability (60° C. (capped) and 40° C./75% RH (open), after 7 days): physically and chemically stable
Purity (area %) @7 D 60° C. (60° C. (capped), 7 days): 99.25 area %
XRPD @7 D 60° C. (60° C. (capped), 7 days): Unchanged
Purity (area %) Initial (initial): 99.26 area %
